Experimental data from ChEMBL document CHEMBL1139527, “Synthesis, modeling, and in vitro activity of (3'S)-epi-K-252a analogues. Elucidating the stereochemical requirements of the 3'-sugar alcohol on trkA tyrosine kinase activity” (J Med Chem, 2005).

Tests used:
[1] = target: T1, High affinity nerve growth factor receptor (Homo sapiens, UniProt P04629); test: Inhibition of baculovirus expressed human trkA
[2] = Inhibition of [gamma-32P]-ATP binding to protein kinase C (1.5 ng) done for 10 min in pH 7.4 at 37 degree C with compound dissolved in DMSO using in In-Plate assay
[3] = target: T1, High affinity nerve growth factor receptor; test: Inhibition of NGF-stimulated TrkA phosphorylation in NIH3T3 cells; format: cell-based
[4] = Relative binding to PKC and TrkA

T1 sequence (P04629 whole entry): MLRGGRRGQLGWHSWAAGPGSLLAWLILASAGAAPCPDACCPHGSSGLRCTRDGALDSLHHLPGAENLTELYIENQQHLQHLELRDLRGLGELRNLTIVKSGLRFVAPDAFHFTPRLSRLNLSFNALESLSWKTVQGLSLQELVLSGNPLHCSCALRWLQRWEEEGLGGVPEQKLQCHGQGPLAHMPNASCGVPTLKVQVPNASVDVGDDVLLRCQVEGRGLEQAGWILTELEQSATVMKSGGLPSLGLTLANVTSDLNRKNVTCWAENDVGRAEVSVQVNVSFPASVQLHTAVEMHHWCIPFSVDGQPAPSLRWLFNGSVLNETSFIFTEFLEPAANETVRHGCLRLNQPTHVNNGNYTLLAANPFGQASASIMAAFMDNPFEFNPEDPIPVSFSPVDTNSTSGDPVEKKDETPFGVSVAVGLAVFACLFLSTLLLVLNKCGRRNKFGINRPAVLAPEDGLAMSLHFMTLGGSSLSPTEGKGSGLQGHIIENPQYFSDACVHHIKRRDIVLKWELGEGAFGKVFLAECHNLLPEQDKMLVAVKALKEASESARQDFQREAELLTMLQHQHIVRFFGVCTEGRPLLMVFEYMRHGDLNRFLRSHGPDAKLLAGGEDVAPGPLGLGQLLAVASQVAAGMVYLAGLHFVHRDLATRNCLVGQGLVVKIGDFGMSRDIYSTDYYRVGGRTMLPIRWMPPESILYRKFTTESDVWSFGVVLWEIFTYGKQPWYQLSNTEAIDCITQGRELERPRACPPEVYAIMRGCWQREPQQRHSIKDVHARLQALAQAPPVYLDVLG

Row | IC50 [1] [nM] | IC50 [2] [nM] | IC50 [3] [nM] | Ratio [4] | SMILES
1 | 20 | 310 |  |  | C[C@@]1(O)C[C@H]2O[C@]1(C)n1c3ccccc3c3c4c(c5c6ccccc6n2c5c31)C(=O)NC4
2 | 3 | 850 | < 10 |  | C[C@]1(O)C[C@H]2O[C@]1(C)n1c3ccccc3c3c4c(c5c6ccccc6n2c5c31)C(=O)NC4
3 | 2.9 | 114 |  | 39 | CO[C@]1(CO)C[C@H]2O[C@]1(C)n1c3ccccc3c3c4c(c5c6ccccc6n2c5c31)C(=O)NC4
4 | 29 | 663 |  |  | C[C@]12O[C@H](C[C@@]1(O)C(N)=O)n1c3ccccc3c3c4c(c5c6ccccc6n2c5c31)CNC4=O
5 | 4 | 218 |  |  | CC1(C)O[C@@H](n2c3ccccc3c3c4c(c5c6ccccc6[nH]c5c32)CNC4=O)C[C@]1(O)CO
6 | 4 | 79 |  |  | CC1(C)O[C@@H](n2c3ccccc3c3c4c(c5c6ccccc6[nH]c5c32)CNC4=O)C[C@@]1(O)CO

Row | SMILES | IC50 [1] [nM] | IC50 [2] [nM] | IC50 [3] [nM] | Ratio [4]
7 | COC(=O)[C@@]1(O)C[C@H]2O[C@]1(C)n1c3ccccc3c3c4c(c5c6ccccc6n2c5c31)C(=O)NC4 [K-252A] |  | 250 |  | 
8 | COC(=O)[C@]1(O)C[C@H]2O[C@]1(C)n1c3ccccc3c3c4c(c5c6ccccc6n2c5c31)C(=O)NC4 |  | 114 |  | 
